In US5547940A, “Method for stimulating proliferation of colon cells using POMC76-103” (Ludwig Institute for Cancer Research, priority 1994, dated 1996):
Values joined by “and” are separate entries in the source; they are usually repeats but may differ in a detail not shown here. Equal entries are not always repeated. Where two headings read alike, the source gives them in different places. Peptide text beside a SMILES is read from it.

Legend:
colonic crypt cells = assay: Growth factors together with LIM 2537 conditioned medium on colonic crypt cells (synergism); format: cell-based; details: tested on murine colonic crypt cells
Protocol: In another set of experiments, human colonic crypt cells were tested with conditioned medium from LIM 2537, together with different growth factors.

LIM 1215 cells [1] = system: LIM 1215 cells
Text: The material was synthesized, using art recognized techniques, and was then used in a mitogenic assay on LIM 1215 cells, following Nice et al., J. Biol. Chem. 266: 14425-14430 (1991), which is incorporated by reference in its entirety.

LIM 1215 cells [2] = assay: Colony formation of LIM 1215 cells in semi-solid agar; format: cell-based, human; details: rhEGF 10 ng/ml alone
Protocol: Colony formation using various factors was studied. Cells of cell line LIM 1215 were cloned in semi-solid agar (0.3%) following Whitehead et al., Int. J. Canc. 46:858-863 (1990). Briefly, the cells were trypsinized and resuspended in RPMI 1640 plus 5% FCS. Cells in the suspension were counted and then resuspended in a mixture of 0.3% agar in RPMI 1640 plus 10% FCS (40° C.), at a concentration of 10^4 cells per ml. The mixture was plated in 1.5 volumes in 35 mm^2 dishes, and allowed to set. Plates were then incubated at 37° C. in 5% CO2 and 100% humidity for 14 days. A solution of 0.1% crystal violet was aded to the plates, and colonies of more than 40 cells were counted.
Conditioned medium was prepared by incubating confluent monolayers of colon carcinoma cell lines with fresh RPMI 1640 plus 5% FCS for 48 hours. Medium was then removed, sterilized by filtration, and added to the agar plates at a final concentration of 10% (v/v). […] See Whitehead, supra.
The effect of the POMC76-103, alone and combination with epidermal growth factor (EGF) was investigated. The peptide and recombinant human EGF ("rhEGF") were tested alone, and combined, in colony formation assays as described supra.

IL-6: interleukin 6
synergism with the LIM 2537 conditioned medium (colonic crypt cells): None of these factors showed any synergism

PDGF
synergism with the LIM 2537 conditioned medium (colonic crypt cells): None of these factors showed any synergism

CSCC[C@H](NC(=O)[C@@H](NC(=O)[C@H](Cc1ccc(O)cc1)NC(=O)[C@@H](N)CCCCN)C(C)C)C(=O)NCC(=O)N[C@@H](Cc1c[nH]cn1)C(=O)N[C@@H](Cc1ccccc1)C(=O)N[C@@H](CCCNC(=N)N)C(=O)N[C@@H](Cc1c[nH]c2ccccc12)C(=O)N[C@@H](CC(=O)O)C(=O)N[C@@H](CCCNC(=N)N)C(=O)N[C@@H](Cc1ccccc1)C(=O)NCC(=O)N[C@@H](CCCNC(=N)N)C(=O)N[C@@H](CCCNC(=N)N)C(=O)N[C@@H](CC(N)=O)C(=O)NCC(=O)N[C@@H](CO)C(=O)N[C@@H](CO)C(=O)N[C@@H](CO)C(=O)N[C@@H](CO)C(=O)NCC(=O)N[C@H](C(=O)NCC(=O)NCC(=O)N[C@@H](C)C(=O)N[C@@H](C)C(=O)N[C@@H](CCC(N)=O)C(=O)O)C(C)C [POMC76-103] (H-KYVMGHFRWDRFGRRNGSSSSGVGGAAQ-OH)
EC50 (LIM 1215 cells [1]): ~0.075 nM

rhEGF: recombinant human EGF
LIM 1215 Colony Stimulating Activity, Colonies (LIM 1215 cells [2]): 300 and 320

EGF: epidermal growth factor
stimulation index (LIM 1215 cells [1]; LIM 1215 cells, FIGS. 16A/16B): 8 fold
EC50 (LIM 1215 cells [1]; mitogenic assay, LIM 1215 cells): 0.05 nM
synergism with the LIM 2537 conditioned medium (colonic crypt cells): None of these factors showed any synergism
